Data from PubChem BioAssay (NCI).
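These data come from cells grown in 96-well plates and exposed to compound for 48 hours at five concentrations. The concentration for 50% growth inhibition is given as GI50. The concentration for full growth arrest is given as TGI.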

Tests used:
Assay in all cases: DTP human tumour cell line panel, 48 h
OVCAR-5 ovarian = system: OVCAR-5 ovarian
HT29 colon = system: HT29 colon
M14 melanoma = system: M14 melanoma
ACHN renal = system: ACHN renal
SF-268 CNS = system: SF-268 CNS
CCRF-CEM leukemia = system: CCRF-CEM leukemia
NCI-H23 lung = system: NCI-H23 lung
SK-MEL-5 melanoma = system: SK-MEL-5 melanoma
SF-295 CNS = system: SF-295 CNS
EKVX NSCLC = system: EKVX NSCLC

SMILES | GI50 (OVCAR-5 ovarian) [µM] | TGI (OVCAR-5 ovarian) [µM] | GI50 (HT29 colon) [µM] | TGI (HT29 colon) [µM] | GI50 (M14 melanoma) [µM] | TGI (M14 melanoma) [µM] | GI50 (ACHN renal) [µM] | TGI (ACHN renal) [µM] | GI50 (SF-268 CNS) [µM] | TGI (SF-268 CNS) [µM] | GI50 (CCRF-CEM leukemia) [µM] | TGI (CCRF-CEM leukemia) [µM] | GI50 (NCI-H23 lung) [µM] | TGI (NCI-H23 lung) [µM] | GI50 (SK-MEL-5 melanoma) [µM] | TGI (SK-MEL-5 melanoma) [µM] | GI50 (SF-295 CNS) [µM] | TGI (SF-295 CNS) [µM] | TGI (EKVX NSCLC) [µM] | GI50 (EKVX NSCLC) [µM]
CCCN(CCSSCCNc1nc(N(C)O)nc(N(C)O)n1)c1nc(N(C)O)nc(N(C)O)n1 | > 100 | > 100 | 7.81 | > 100 | 5.68 | > 100 | 3.92 | > 100 | 6.37 | > 100 | 2.24 | > 100 | 18 | > 100 | 8.65 | > 100 | 3.56 | 58.3 |  | 
CCSc1nnc(-c2ccc3ccccc3c2O)n1-c1ccc(Cl)cc1 | > 100 | > 100 | 16 | > 100 | 8.11 | > 100 | 4.99 | > 100 | 26.1 | > 100 | 3.58 | > 100 | > 100 | > 100 | 6.01 | > 100 | 4.24 | > 100 |  | 
COc1ccc(-c2csc(NC(=O)c3cc(O)c(O)c(O)c3)n2)cc1 | > 33.3 | > 33.3 | 18.6 | > 33.3 | 10.4 | > 33.3 | 3.76 | > 33.3 | 6.31 | > 33.3 | 1.55 | 17.6 | 11.2 | > 33.3 | 6.04 | > 33.3 | 16.1 | > 33.3 |  | 
OCc1ccc(N(CCN2CCCC2)Cc2ccc(F)cc2)cc1Cl | 16 | 40.5 | 15.6 | 32.8 | 14.3 | 30.9 | 21.8 | 72.3 | 21 | 69 | 23.8 | 91.5 | 32.4 | > 100 | 15 | 28.4 |  |  |  | 
Cc1ccc(Oc2ccc([N+](=O)[O-])cc2[N+](=O)[O-])c(C)c1 |  | > 100 |  | 59.3 |  | > 100 |  | > 100 |  |  |  | > 100 |  | > 100 |  | 50 |  | > 100 | > 100 | 
COc1ccc(-c2c(N)[n+]([O-])c3ccccc3[n+]2[O-])cc1OC |  | > 100 |  | > 100 |  | > 100 |  | > 100 |  | > 100 |  |  |  | > 100 |  | > 100 |  | > 100 | > 100 | 
Nc1ncnc2c1cnn2Cc1ccc(Cl)cc1 | 44.8 | > 100 |  | > 100 |  | > 100 |  | > 100 |  | > 100 |  | > 100 |  | > 100 |  | > 100 |  | > 100 |  | 
O=C(Nc1cccc(-n2cc(-c3ccncc3)c(-c3ccc(O)c(Cl)c3)n2)c1)Nc1cccc(C(F)(F)F)c1 | 3.5 | 36.3 | 3.75 | 13.7 | 1.74 | 3.94 | 2.51 | 8.4 | 2.59 | 9.98 | 2.12 | 7.92 | 2.59 | 8.81 | 1.59 | 3.01 | 1.97 | 5.47 |  | 
CC(C)Nc1ncc2cc(Oc3ccc(F)cc3F)c(=O)n(C)c2n1 | > 25 | > 25 | > 25 | > 25 | > 25 | > 25 | > 25 | > 25 | > 23.7 | > 25 | > 25 | > 25 | > 25 | > 25 | > 25 | > 25 | > 25 | > 25 |  | 
CCOC(=O)Nc1nc2c(C)cccc2s1 | 66.8 | > 100 | 46.8 | > 100 | 53 | > 100 | 74.6 | > 100 | 55.3 | > 100 | 54.8 | > 100 | 38.8 | > 100 | 28 | 91.5 | 27.2 | > 100 |  | 
Cc1[nH]nc2c1N=C(c1ccccc1Cl)c1cc([N+](=O)[O-])ccc1N2 | > 25 | > 25 | 0.979 | > 25 | 0.687 | > 25 | 1.07 | > 15.3 | 1.14 | > 25 | 0.76 | > 25 | 5.06 | > 25 | 0.204 | > 25 | 0.256 |  |  | 
O=C(NCc1ccncc1)C1COc2cc(-c3cc(=O)c4ccccc4o3)ccc2O1 (configuration not stated) |  | > 100 |  | > 100 |  | > 100 |  | > 100 |  |  |  | > 100 |  | > 100 |  | > 100 |  | > 100 | > 100 | 
Clc1ccc(Nc2ccnc(NCCCNc3ccnc4cc(Cl)ccc34)n2)cc1 | 1.68 | 3.09 | 1.29 | 2.83 |  |  | 1.57 | 3.04 |  |  |  |  | 1.79 | 3.53 | 1.4 | 2.75 | 1.55 | 2.96 |  | 
N#C/C(=C\c1ccc(C(O)P(=O)(O)O)cc1)C(N)=O (configuration not stated) |  |  |  | > 100 |  | > 100 |  | > 100 |  | > 100 |  | > 100 |  | > 100 |  | > 100 |  | > 100 | > 100 | 
CN1CCN(c2ccc(C(=O)Nc3cc(-c4cccc(NS(=O)(=O)c5ccccc5)c4)[nH]n3)cc2)CC1 | 13.8 | 46.6 | 3.51 | 14.6 | 6.13 | 20.3 | 7.6 | 26.7 | 5.51 | 25.7 | 3.28 | 42.3 | 11.6 | 35.2 | 4.17 | 9.23 | 3.69 | 20.9 |  | 
C1COCCOCCOCCOCCO1.CC(=O)[CH-]C(C)=O.CC(=O)[CH-]C(C)=O.CC(=O)[CH-]C(C)=O.[V] |  |  | 19.1 | 37.4 | 5.59 | 21 | 12 | 44.1 | 20.6 | 65.8 | 19.1 | 41.3 | 15.6 | 31.6 | 2.47 | 12.8 | 7.9 | 22 |  | 
CC1(O)CCC2(C#N)CCC1C2O (configuration not stated) |  | > 100 |  | > 100 |  | > 100 |  | > 100 |  | > 100 |  | > 100 |  |  |  | > 100 |  | > 100 | > 100 | 
O=C1CS/C(=N\S(=O)(=O)c2ccc(N3N=C4c5ccccc5CC4C3c3ccc(Cl)cc3)cc2)N1c1ccccc1 (configuration not stated) |  |  |  |  | 59.4 | > 100 | 27.7 | 66.5 | 22.7 | 84.8 | 13.7 | 58.3 |  |  | 32.2 | > 100 | 35.8 | 98.7 | > 100 | 43.2
Cn1c(=O)c(Oc2ccccc2)cc2cnc(NC3CCOCC3)nc21 | > 25 | > 25 | > 25 | > 25 | > 25 | > 25 | > 25 | > 25 | > 25 | > 25 | > 25 | > 25 | > 25 | > 25 | > 25 | > 25 | > 25 | > 25 |  | 
CC/C=C/c1cc2cc[nH]c2c2c1C(C)C[C@@H]2C (some centres not stated) |  |  |  | 82.2 |  | 74.9 |  | > 100 |  |  |  | 61.9 |  | 58.6 |  | 46.4 |  | 55.9 | > 100 | 
O=C(c1ccc(Cl)cc1)c1ccc(OCCSCCCCCCCCCCSCCOc2ccc(C(=O)c3ccc(Cl)cc3)cc2)cc1 |  | > 100 |  | > 100 |  |  |  | > 100 |  | > 100 |  | > 100 |  | > 100 |  | > 100 |  | > 100 | > 100 | 
COc1ccc2c(c1)/C(=C/c1cc(OC)c(OC)c(OC)c1)C(=O)N2C | 5.49 | > 100 | 2.9 | > 88.1 |  |  | 3.6 | > 39.5 | 2.39 | 6.72 | 2.21 | 7.04 | 4.42 | > 100 | 2.76 | 12.6 | 2.78 | > 100 | > 100 | 5.1
c1ccc(COC2(OCc3ccccc3)CC3OC2C2NN=NC32)cc1 (configuration not stated) |  | > 100 |  | 46.5 |  | 39.4 |  | > 100 |  | 51 |  | 33.1 |  | 34.3 |  | 32.3 |  | 62.4 |  | 
C1=Nc2ccccc2C=Nc2ccccc2C=Nc2ccccc2C=Nc2ccccc21.[Cl-].[Pt+2] |  |  | 22.3 | 52.5 | 30.2 | > 100 | 19 | 49 | 25.1 | 75.9 | 14.9 | 67.2 |  |  | 18.8 | 48.3 |  |  | > 100 | 37.5
Cc1cc2cn3c4cccnc4[nH]c(=O)c3c2cc1C | 1.66 | 3.02 |  |  |  |  | 1.73 | 3.1 |  |  |  |  | 1.37 | 2.74 | 1.13 | 2.34 | 1.51 | 3.26 |  | 
